The text below walks through data of patent US20170037028A1 (BAYER PHARMA AKTIENGESELLSCHAFT, priority 2013, published 2017).

pIC50: −log10 of the molar value.

The target in the first assay is T1, GLUT1 (Homo sapiens, UniProt P11166).
T1 sequence (P11166 1-492): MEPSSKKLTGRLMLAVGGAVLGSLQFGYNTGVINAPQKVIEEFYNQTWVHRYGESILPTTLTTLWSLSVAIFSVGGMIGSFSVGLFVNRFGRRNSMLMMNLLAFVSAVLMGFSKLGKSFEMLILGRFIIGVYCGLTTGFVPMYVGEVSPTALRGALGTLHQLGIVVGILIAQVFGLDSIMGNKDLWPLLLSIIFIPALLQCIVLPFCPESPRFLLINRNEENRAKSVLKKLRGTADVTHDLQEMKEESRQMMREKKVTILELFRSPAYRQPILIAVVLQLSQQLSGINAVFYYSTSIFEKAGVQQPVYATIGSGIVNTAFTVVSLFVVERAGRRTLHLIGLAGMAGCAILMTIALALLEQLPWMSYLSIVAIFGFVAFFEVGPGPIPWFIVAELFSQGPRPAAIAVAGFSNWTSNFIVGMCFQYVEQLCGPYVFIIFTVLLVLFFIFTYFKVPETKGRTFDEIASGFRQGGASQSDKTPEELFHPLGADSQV
Put plainly: Indirect measurement of GLUT1 activity by quantification of intracellular ATP levels (glucose induced ATP increase). The format is cell-based. Set-up: endogenous in cells; host or cells: DLD1 or CHO-K1. To be noted: DLD1 cells; 0.1 mM glucose, 1 μM Rotenone, 15 min; CellTiter-Glo ATP readout; IC50 values standardized to cytochalasin B IC50 values; read-out: IC50 regarding glucose induced ATP increase (GLUT1 inhibition). The gist of the method: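 Intracellular ATP was measured by CellTiter-Glo luminescence as an indirect readout of transport: glucose-driven for GLUT1, fructose-driven for GLUT2. DLD1 or CHO-K1 cells were used alongside an oxidative phosphorylation inhibitor. Beforehand, cells were held overnight in glucose-free 1% FCS medium to deplete ATP.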
Take `Cc1nn(CC2CCOCC2)c(C)c1NC(=O)c1cc(C(F)(F)F)nc2ccc(Br)cc12` [Example 1114]: the pIC50 is 7.23.

As for `Cc1nn(CCc2ccc(F)cc2)c(C)c1NC(=O)c1cc(C(F)(F)F)nc2ccc(Br)cc12` [Example 1129], the pIC50 is 7.06.

Staying with this assay, now noted: read-out: IC50 regarding glucose induced ATP increase (GLUT1 inhibition).
With `Cc1ccc(CNC(=O)c2ccc(Cn3nc(C)c(NC(=O)c4cc(C(F)(F)F)nc5ccc(Br)cc45)c3C)cc2)cc1` [Example 1108], the pIC50 was 7.28. `COc1ccc(CCCn2nc(C)c(NC(=O)c3cc(OC)nc4ccccc34)c2C)cc1` [Example 1109]: the pIC50 is 7.27.

As to `Cc1nn(Cc2ccc(C(=O)NCc3cccs3)cc2)c(C)c1NC(=O)c1cc(C(F)(F)F)nc2ccc(Br)cc12` [Example 1110], the pIC50 was 7.26.

Consider `CNC(=O)N1CCC(Cn2nc(C)c(NC(=O)c3cc(C(F)(F)F)nc4ccc(Br)cc34)c2C)CC1` [Example 1111], for which the pIC50 was 7.25.

Take `Cc1nn(Cc2ccc(C(=O)NC[C@H](O)CO)cc2)c(C)c1NC(=O)c1cc(C(F)(F)F)nc2ccc(Br)cc12` [Example 1112]: the pIC50 was 7.24. Turning to `Cc1ccc2nc(C)cc(C(=O)Nc3c(C)nn(Cc4ccc(Br)cc4)c3C)c2c1` [Example 1113], the pIC50 was 7.23.

On to `COCCNC(=O)c1ccc(Cn2nc(C(F)(F)F)c(NC(=O)c3cc(C(F)(F)F)nc4ccc(Br)cc34)c2C)nc1` [Example 1115], for which the pIC50 is 7.23. As to `Cc1nn(Cc2ccc(C(=O)NCCn3ccnc3)cc2)c(C)c1NC(=O)c1cc(C(F)(F)F)nc2ccc(Br)cc12` [Example 1116], the pIC50 is 7.23. On the same count and under the same terms, the same measure for `Cc1nn(Cc2ccc(F)cc2)c(C)c1NC(=O)c1cc(C(F)(F)F)nc2ccc(N)cc12` [Example 1117]: 7.22. As to `Cc1nn(Cc2cccnc2C#N)c(C)c1NC(=O)c1cc(C(F)(F)F)nc2ccc(Br)cc12` [Example 1118], the pIC50 was 7.20. Same read-out and setting: to `Cc1nn(Cc2ccc(C(=O)NCc3ccc(F)cc3)cc2)c(C)c1NC(=O)c1cc(C(F)(F)F)nc2ccc(Br)cc12` [Example 1119] belongs 7.19; to `COCCCNC(=O)c1ccc(Cn2nc(C)c(NC(=O)c3cc(C(F)(F)F)nc4ccc(Br)cc34)c2C)cc1` [Example 1120], 7.18; to `Cc1nn(Cc2ccc(C(=O)NCCN(CCO)CCO)cc2)c(C)c1NC(=O)c1cc(C(F)(F)F)nc2ccc(Br)cc12` [Example 1121], 7.18. As to `Cc1nn(Cc2ccc(C(=O)NC(CO)CO)cc2)c(C)c1NC(=O)c1cc(C(F)(F)F)nc2ccc(Br)cc12` [Example 1122], the pIC50 is 7.17. Still for that read-out and setting: the same measure for `Cc1nn(Cc2ccc(C(=O)NCC3CC3(F)F)cc2)c(C)c1NC(=O)c1cc(C(F)(F)F)nc2ccc(Br)cc12` (stereo not shown) [Example 1123]: 7.15; for `Cc1nn(Cc2ccc(C(=O)NCc3cn(C)cn3)cc2)c(C)c1NC(=O)c1cc(C(F)(F)F)nc2ccc(Br)cc12` [Example 1125]: 7.11; for `CNC(=O)c1nn(Cc2ccc(F)cc2)c(C)c1NC(=O)c1cc(C(F)(F)F)nc2ccc(Br)cc12` [Example 1126]: 7.10.

Consider `Cc1ccc2nc(C)cc(C(=O)Nc3c(C)nn(Cc4ccc(C#N)c(F)c4)c3C)c2c1` [Example 1127], for which the pIC50 is 7.08. Same read-out and setting: the same measure for `COc1cc(C(=O)Nc2c(C(F)(F)F)nn(Cc3ccc(C#N)nc3)c2C)c2ccccc2n1` [Example 1128]: 7.06; for `Cc1nn(Cc2ccc(C(=O)NCc3nccs3)cc2)c(C)c1NC(=O)c1cc(C(F)(F)F)nc2ccc(Br)cc12` [Example 1130]: 7.06; for `Cc1nn(Cc2ccc(C(=O)NCCCO)cn2)c(C)c1NC(=O)c1cc(C(F)(F)F)nc2ccc(Br)cc12` [Example 1131]: 7.06. Still for that read-out and setting: the same measure for `COc1cccc(CNC(=O)c2ccc(Cn3nc(C)c(NC(=O)c4cc(C(F)(F)F)nc5ccc(Br)cc45)c3C)cc2)c1` [Example 1132]: 7.05. For the compound `Cc1nn(Cc2ccc(C(=O)NCCCN3CCOCC3)cc2)c(C)c1NC(=O)c1cc(C(F)(F)F)nc2ccc(Br)cc12` [Example 1133], the pIC50 is 7.05.

`Cc1nn(Cc2ccc(C(=O)NCC(C)(C)CO)cc2)c(C)c1NC(=O)c1cc(C(F)(F)F)nc2ccc(Br)cc12` [Example 1134]: the pIC50 is 7.01.

For the compound `Cc1c(NC(=O)c2cc(C(F)(F)F)nc3ccc(Br)cc23)c(C(N)=O)nn1Cc1ccc(F)cc1` [Example 1135], the pIC50 was 7.01.

Consider `Cc1nn(Cc2ccc(C(=O)NC(CO)(CO)CO)cc2)c(C)c1NC(=O)c1cc(C(F)(F)F)nc2ccc(Br)cc12` [Example 1136], for which the pIC50 is 7.01. Still for that read-out and setting: to `Cc1nn(Cc2ccc(C(=O)NCCOc3ccccc3)cc2)c(C)c1NC(=O)c1cc(C(F)(F)F)nc2ccc(Br)cc12` [Example 1137] belongs 7.00; to `Cc1nn(Cc2ccc(C(N)=O)cn2)c(C)c1NC(=O)c1cc(C(F)(F)F)nc2ccc(Br)cc12` [Example 1138], 6.99. Same read-out and setting: the same measure for `Cc1nn(Cc2ccc(C(=O)NCCc3ccccn3)cc2)c(C)c1NC(=O)c1cc(C(F)(F)F)nc2ccc(Br)cc12` [Example 1139]: 6.98. The same measure, in the same setting: to `C#CCNC(=O)c1ccc(Cn2nc(C)c(NC(=O)c3cc(C(F)(F)F)nc4ccc(Br)cc34)c2C)cc1` [Example 1141] belongs 6.97; to `Cc1nn(Cc2ccc(C(=O)NCc3cncn3C)cc2)c(C)c1NC(=O)c1cc(C(F)(F)F)nc2ccc(Br)cc12` [Example 1142], 6.95. Take `Cc1nn(CC2CCOCC2)c(C)c1NC(=O)c1cc(C(F)(F)F)nc2c(Cl)cc(Cl)cc12` [Example 1143]: the pIC50 is 6.94.

With `Cc1nn(Cc2ccc(C(=O)NCCOCCO)cc2)c(C)c1NC(=O)c1cc(C(F)(F)F)nc2ccc(Br)cc12` [Example 1144], the pIC50 is 6.94. `Cc1nn(Cc2ccc(C(=O)N(CCO)CCO)cc2)c(C)c1NC(=O)c1cc(C(F)(F)F)nc2ccc(Br)cc12` [Example 1145]: the pIC50 was 6.93. Still for that read-out and setting: to `Cc1nn(Cc2ccc(C(=O)N(C)CCC3(O)CCCC3)cc2)c(C)c1NC(=O)c1cc(C(F)(F)F)nc2ccc(Br)cc12` [Example 1146] belongs 6.93; to `Cc1nn(Cc2ccc(C(=O)N3CC(C#N)C3)cc2)c(C)c1NC(=O)c1cc(C(F)(F)F)nc2ccc(Br)cc12` [Example 1147], 6.93; to `Cc1nn(CCc2cccc(F)c2)c(C)c1NC(=O)c1cc(C(N)=O)nc2ccccc12` [Example 1148], 6.91. Same read-out and setting: the same measure for `Cc1nn(Cc2ccc(C(=O)NCc3ccccc3F)cc2)c(C)c1NC(=O)c1cc(C(F)(F)F)nc2ccc(Br)cc12` [Example 1149]: 6.90. For `Cc1nn(Cc2ccc(C(=O)NCCN3CCCCC3)cc2)c(C)c1NC(=O)c1cc(C(F)(F)F)nc2ccc(Br)cc12` [Example 1150], the pIC50 is 6.89. The same measure, in the same setting: to `Cc1nn(Cc2ccc(C(=O)NCc3ccccc3)cn2)c(C)c1NC(=O)c1cc(C(F)(F)F)nc2ccc(Br)cc12` [Example 1151] belongs 6.89; to `Cc1nn(Cc2ccc(C(=O)NC[C@@H](O)CO)cc2)c(C)c1NC(=O)c1cc(C(F)(F)F)nc2ccc(Br)cc12` [Example 1152], 6.88. `COc1cc(C(=O)Nc2c(C)nn(Cc3cccnc3C#N)c2C)c2ccccc2n1` [Example 1153]: the pIC50 is 6.87. The same measure, in the same setting: to `Cc1nn(Cc2ccc(C(=O)NCc3cnn(C)c3)cc2)c(C)c1NC(=O)c1cc(C(F)(F)F)nc2ccc(Br)cc12` [Example 1154] belongs 6.86. On the same count and under the same terms, to `COC(=O)N1CCC(Cn2nc(C)c(NC(=O)c3cc(C(N)=O)nc4ccccc34)c2C)CC1` [Example 1155] belongs 6.85.

Consider `CC(=O)N1CCC(Cn2nc(C)c(NC(=O)c3cc(C(F)(F)F)nc4ccc(Br)cc34)c2C)CC1` [Example 1156], for which the pIC50 was 6.83. Still for that read-out and setting: the same measure for `CNC(=O)CCNC(=O)c1ccc(Cn2nc(C)c(NC(=O)c3cc(C(F)(F)F)nc4ccc(Br)cc34)c2C)cc1` [Example 1157]: 6.83. Still for that read-out and setting: the same measure for `Cc1nn(Cc2ccc(C(=O)Nc3ccncn3)cc2)c(C)c1NC(=O)c1cc(C(F)(F)F)nc2ccc(Br)cc12` [Example 1158]: 6.81; for `Cc1nn(Cc2ccc(C(=O)NCC3(C)COC3)cn2)c(C)c1NC(=O)c1cc(C(F)(F)F)nc2ccc(Br)cc12` [Example 1159]: 6.80. For `Cc1nn(Cc2ccc(C(=O)N(C)CCC#N)cc2)c(C)c1NC(=O)c1cc(C(F)(F)F)nc2ccc(Br)cc12` [Example 1160], the pIC50 was 6.79.

Consider `Cc1nn(Cc2ccc(C(=O)NCc3cccc(F)c3)cc2)c(C)c1NC(=O)c1cc(C(F)(F)F)nc2ccc(Br)cc12` [Example 1163], for which the pIC50 is 6.78. On to `Cc1nn(Cc2ccc(C(=O)NC[C@@H]3CCCO3)cc2)c(C)c1NC(=O)c1cc(C(F)(F)F)nc2ccc(Br)cc12` [Example 1164], for which the pIC50 was 6.78. Same read-out and setting: the same measure for `COc1ccc(CCCn2nc(C)c(NC(=O)c3cc(C(F)(F)F)nc4ccc(Br)cc34)c2C)cc1` [Example 1165]: 6.77; for `Cc1nn(Cc2ccc(C(=O)NCCCN(C)C)cc2)c(C)c1NC(=O)c1cc(C(F)(F)F)nc2ccc(Br)cc12` [Example 1167]: 6.77.
